Source: patent US20220202940A1, “METHOD OF STABILIZING A DIALYSIS SOLUTION” (Fresenius Medical Care Deutschland GmbH, priority 2018, published 2022)

Conditions: 0.1 mmol/l orthophosphate added to DUOSOL 4551 after the start of the precipitation, 40° C.
Text: The pH at which a significant precipitation of calcium carbonate starts is a criterion for the stability of the solution and is subsequently called pHmax. […] The time at which the significant precipitation of calcium carbonate starts is subsequently called tG to represent the “time of germination”.
The stabilizing effect of a subsequent addition of phosphate or of a phosphate ester to existing dialysis solutions was examined using the rapid degassing method in a carousel setup. THz rapid degassing method in this variant allows an accelerated aging of dialysis solutions by degassing the CO2 from the bicarbonate buffer. The degassing of CO2 that normally occur slowly during the life of the products can be simulated within a few hours with this experiment setup.
Three separate experiments are carried out for each data point and the mean value is used.
That is, after a specific time period, 2.5 ml of a parent solution having 100 mmol/l glycerophosphate is added to the flasks containing 250 ml DUOSOL 4551, which results in a concentration of 1.0 mmol/l of glycerophosphate in the flask.

## O=P(O)(O)O [orthophosphate]
  dissolution of existing calcium carbonate precipitate: not observed
  effect on precipitation of calcium carbonate: inhibiting effect
